The values that follow come from article PMC11960442, “In vitro activities of lipopeptides against fluconazole-resistant Candida auris” (Microbiology Spectrum, 2025).

Values after ≈ are worked out from the molar mass of the structure shown. Where two headings read alike, the source gives them in different places. Non-standard residues stand in square brackets, D forms with d. Residues, ends and D or L forms follow the SMILES beside them. *: point of attachment. Myristoyl = CCCCCCCCCCCCCC(=O)*; Nle = CCCC[C@H](N)C(=O)O

For assay [1], the system named is fluconazole-resistant C. auris isolates. Briefly: microbe, parasite or virus in culture. Particulars: Candidozyma auris, EUCAST broth microdilution, RPMI 1640 with 2% glucose. Background: Dilution methods test growth across graded concentrations, often in twofold steps.
In assay [2] the test system is C. auris isolates 728157, CAB-1, CAB-2. Briefly: Time-kill experiments (CFU counts), peptides combined with fluconazole. Type of assay: cell-based, Candida auris. Particulars: for interaction with fluconazole in time-kill: fluconazole 128 mg/L with 0.5X and 1X MIC of peptide, interpreted by White et al.; for log difference compared to single administration, time-kill: C. auris CAB-1.

Assay [3] deals with fluconazole-resistant C. auris isolates. Particulars: for MIC: EUCAST broth microdilution, RPMI 1640 with 2% glucose; for MIC values: the six C. auris isolates.
Assay [4] relates to C. auris isolates 728157, CAB-1, CAB-2. Briefly: Growth curves (OD450 nm every hour for 24 h). The assay is classed as cell-based, Candida auris. Particulars: for growth: growth curve 24 h. The method, then:
Growth Curves. The action of the peptides was assessed by growth curve measuring OD450 nm every hour for 24 h using peptides at different concentrations (0.5X, 1X, 2X MIC). […] Untreated isolates were used as control. All experiments were replicated at least three times.

The next assay has as its system C. auris. The experiment in a line: Stability of compounds: MIC after pre-incubation of the peptides. The assay is classed as cell-based, Candida auris. Particulars: peptides previously incubated for 24 and 48 hours at 37°C; no changes in MIC values. The method, then:
Determination of MICs. […] The media used for this assay was RPMI 1640 with 2% of glucose and the concentration of antifungal and peptides tested ranged from 128 to 0.25 mg/l.
Stability of compounds The peptides were incubated at 37°C for 24 and 48 hours. They were then used to perform MIC determination as previously described.

Where [5] appears, read: isolate 728157 (clade I, ERG11 K143R).
Where [6] appears, read: isolate CAB-1 (clade I, ERG11 Y132F).
Where [7] appears, read: isolate CAB-2 (clade I, ERG11 Y132F).
Where [8] appears, read: isolate CAB-3 (clade I, ERG11 Y132F).
The mark [9] stands for this setting: isolate CAB-4 (clade I, ERG11 Y132F).
Where [10] appears, read: isolate CAB-5 (clade I, ERG11 Y132F).
Setting [11] is: fluconazole combined with 0.5X MIC of peptide, after 12 hours.
The mark [12] stands for this setting: C. auris CAB-2, fluconazole combined with 0.5X MIC of peptide, after 12 hours.
The mark [13] stands for this setting: C. auris 728157, all the concentrations (0.5X, 1X, 2X MIC).
[14] abbreviates: C. auris 728157, peptide at 0.5X MIC.
The mark [15] stands for this setting: C. auris 728157, peptide at 1X and 2X MIC.
[16] abbreviates: C. auris CAB-1, peptide at 1X and 2X MIC.
Setting [17] is: C. auris CAB-2, peptide at 1X MIC.
Where [18] appears, read: C. auris CAB-2, peptide at 2X MIC.

Consider `C[C@@H]1[C@H](O)[C@@H](C)/C=C/C=C/C=C/C=C/C=C/C=C/C=C/[C@H](O[C@@H]2O[C@H](C)[C@@H](O)[C@H](N)[C@@H]2O)C[C@@H]2O[C@](O)(C[C@@H](O)C[C@@H](O)[C@H](O)CC[C@@H](O)C[C@@H](O)CC(=O)O[C@H]1C)C[C@H](O)[C@H]2C(=O)O` [AMB, amphotericin], for which the MIC in assay [1] (setting [5]) worked out at 0.5 µg/mL (≈ 0.541 µM); in assay [1] (setting [6]) it was 1 µg/mL (≈ 1.08 µM); in assay [1] (setting [7]), 1 µg/mL (≈ 1.08 µM); in assay [1] (setting [8]), 1 µg/mL (≈ 1.08 µM); in assay [1] (setting [9]) it was 1 µg/mL (≈ 1.08 µM); in assay [1] (setting [10]), 1 µg/mL (≈ 1.08 µM).
Take `OC(Cn1cncn1)(Cn1cncn1)c1ccc(F)cc1F` [FLU, fluconazole]: the MIC in assay [1] (setting [5]) was over 128 µg/mL; in assay [1] (setting [6]), 64 µg/mL (≈ 209 µM); in assay [1] (setting [10]), 64 µg/mL (≈ 209 µM).
For `CCCCCCCCCCCCCC(=O)N[C@@H](CCCC)C(=O)N[C@@H](CCCNC(=N)N)C(=O)N[C@@H](CCCNC(=N)N)C(N)=O` [NeI, C14-NleRR-NH2] (Myristoyl-[Nle]-Arg-Arg-NH2), the “interaction with fluconazole in time-kill” value in assay [2] (C. auris 728157) was “synergistic effect”. Also, the “log difference, time-kill” value in assay [2] (C. auris 728157, fluconazole (128 mg/L) in combination with 0.5X and 1X MIC of peptide, at 32 hours) is 3.10 log; in assay [2] (C. auris 728157, fluconazole (128 mg/L) in combination with 0.5X and 1X MIC of peptide, at 48 hours) it was 3.53 log; in assay [2] (setting [12]), 1.19 log. The “log difference compared to single administration, time-kill” value in assay [2] (setting [11]) is on record as 2.19 log. Also, the MIC in assay [3] (setting [5]), in assay [3] (setting [6]), in assay [3] (setting [7]), in assay [3] (setting [8]), in assay [3] (setting [9]) and in assay [3] (setting [10]) was 8 µg/mL (≈ 12.3 µM) each time. Moreover, the MIC values in assay [3] was 8 µg/mL; in assay [3] (8 mg/L expressed in µM) it was 9 µM. Further, the “hours of treatment after which P <0.05 compared to control (growth curve)” value was 8 h in assay [4] (setting [13]); 8 h in assay [4] (C. auris CAB-1, 1X and 2X MIC concentrations); 7 h in assay [4] (C. auris CAB-2, 1X and 2X MIC concentrations). Besides, the “delay of the start of growth compared to the control” value in assay [4] (setting [14]) came out at 16 h; in assay [4] (setting [17]), 14 h. The growth entry in assay [4] (setting [15]), in assay [4] (setting [16]) and in assay [4] (setting [18]) was “completely inhibited” in each case. Also, in the assay with C. auris, the “MIC after pre-incubation of the peptide (stability)” value turned out to be 8 µg/mL.
Take `CCCCCCCCCCCCCC(=O)N[C@@H](Cc1c[nH]c2ccccc12)C(=O)N[C@@H](CCCNC(=N)N)C(=O)N[C@@H](CCCNC(=N)N)C(N)=O` [WR, C14-WRR-NH2] (Myristoyl-Trp-Arg-Arg-NH2): the “interaction with fluconazole in time-kill” value in assay [2] (C. auris 728157) was “additive effect”. The “log difference compared to single administration, time-kill” value in assay [2] (setting [11]) is reported as 2.96 log. In assay [2] (setting [12]), the “log difference, time-kill” value is on record as 1.69 log. In addition, the MIC in assay [3] (setting [5]), in assay [3] (setting [6]), in assay [3] (setting [7]), in assay [3] (setting [8]), in assay [3] (setting [9]) and in assay [3] (setting [10]) was 8 µg/mL (≈ 11 µM) in each case. The MIC values in assay [3] amounted to 8 µg/mL; in assay [3] (8 mg/L expressed in µM) it was 8.4 µM. The “hours of treatment after which P <0.05 compared to control (growth curve)” value in assay [4] (setting [13]) was 9 h; in assay [4] (C. auris CAB-1, all the concentrations (0.5X, 1X, 2X MIC)), 9 h; in assay [4] (C. auris CAB-2, all the concentrations (0.5X, 1X, 2X MIC)), 8 h. Moreover, the “delay of the start of growth compared to the control” value in assay [4] (setting [14]) came out at 22 h; in assay [4] (setting [17]) it was 16 h. For the same molecule, the growth entry in assay [4] (setting [15]), in assay [4] (setting [16]) and in assay [4] (setting [18]) was “completely inhibited” in each case. The “growth after 24 hours compared to the control” value in assay [4] (peptide at 0.5X MIC, ANOVA, P <0.05) is recorded as “statistically significant reduction of growth”. Besides, the “MIC after pre-incubation of the peptide (stability)” value in the assay on C. auris was 8 µg/mL.
With anidulafungin [reference compound], the MIC in assay [3] (setting [5]) was determined as 0.25 µg/mL; in assay [3] (setting [6]), 0.5 µg/mL; in assay [3] (setting [7]), 0.25 µg/mL; in assay [3] (setting [8]), 0.25 µg/mL; in assay [3] (setting [9]), 0.25 µg/mL; in assay [3] (setting [10]) it was 0.25 µg/mL.
